# Measured values as given in patent US20250042912A1, “NOVEL NON-FLUORINATED QUINOLONE COMPOUND AND USE THEREOF” (priority 2021, published 2025).
# Structures can show the parent of a compound that is named as a salt.
# Key:
# Assay type in all cases: cell-based
# [1] = test system: Propionibacterium acnes ATCC 11827; experiment: Minimum inhibitory concentration (MIC) assay, Propionibacterium acnes ATCC 11827; settings: Cutibacterium acnes, ATCC11827; anaerobic culture 35+/-2°C, 48 hours; read with naked eyes
# Experimental: (§1) On the day of the experiment, the compound in the flask was dissolved in 100% DMSO until the concentration of mother liquor was 0.4 mg/mL. If the mother liquor was not used on the same day, it was stored at −80° C. for future use. The compound mother liquor and standard antibiotics were subjected to 2-fold gradient dilution with corresponding solvents on a 96-microwell plate (V-bottom) to obtain 100× working solutions (Well 1 to Well 7) in sequence. Among them, the concentrations of the compound were 400 μg/mL, 200 μg/mL, 100 μg/mL, 50 μg/mL, 25 μg/mL, 12.5 μg/mL, 6.25 μg/mL, and 3.125 μg/mL. 100% DMSO was used as growth control (Well 8). As such, the compound motherplate was obtained. Two days before the experiment, anaerobic bacteria (Propionibacterium acnes) stored in a cryogenic tube at −80° C. were scribed on an MBA (Brucella Agar+5% (v/v) defibrillated sheep blood+[…] Hemin+1 μg/mLVitamin K1) plate. The anaerobic bacteria were placed in a 35+/−2° C. anaerobic incubator for 42-48 hours of cultivation. On the day of the experiment, the plate was taken out, clones were picked from the plate and suspended in physiological saline. Then, the turbidity of the bacterial suspension (containing 1.0-2.0×10^8 CFU/mL) was adjusted to OD600=0.2 by a turbidity meter. Then, the adjusted bacterial suspension was diluted to an appropriate concentration with the assay culture medium: about 5×10^5 CFU/mL for aerobic bacteria, and about 1×10^6 CFU/mL for anaerobic bacteria. As such, the inoculating solution was obtained. […] Therefore, the final assay concentrations of the compound were 4 μg/mL, 2 μg/mL, 1 μg/mL, 0.5 μg/mL, 0.25 μg/mL, 0.125 μg/mL, 0.06 μg/mL and 0.03 μg/mL. The total volume of each well on the assay plate was 200 μL: containing 1% DMSO, about 5×10^5 CFU/mL of aerobic bacteria and about 1×10^6 CFU/mL of anaerobic bacteria. All assay plates for aerobic bacteria were aerobically cultured at 35+/−2° C. for 16 to 20 hours, and all assay plates for anaerobic bacteria were anaerobically cultured in an anaerobic incubator at 35+/−2° C. for 48 hours. Note: for anaerobic bacteria, both the preparation of bacterial solution in step 2 and the inoculation of bacterial solution in step 3 were operated in an anaerobic workstation.
# [2] = test system: Propionibacterium acnes ATCC 6919; experiment: Minimum inhibitory concentration (MIC) assay, Propionibacterium acnes ATCC 6919; settings: Cutibacterium acnes, ATCC6919; anaerobic culture 35+/-2°C, 48 hours; read with naked eyes
# Experimental: as §1
# [3] = test system: Staphylococcus epidermidis ATCC 35983; experiment: Minimum inhibitory concentration (MIC) assay, Staphylococcus epidermidis ATCC 35983; settings: ATCC35983, aerobic culture 35+/-2°C, 16 to 20 hours, read with naked eyes
# Experimental: (§2) On the day of the experiment, the compound in the flask was dissolved in 100% DMSO until the concentration of mother liquor was 0.4 mg/mL. If the mother liquor was not used on the same day, it was stored at −80° C. for future use.
# (§3) The compound mother liquor and standard antibiotics were subjected to 2-fold gradient dilution with corresponding solvents on a 96-microwell plate (V-bottom) to obtain 100× working solutions (Well 1 to Well 7) in sequence. Among them, the concentrations of the compound were 400 μg/mL, 200 μg/mL, 100 μg/mL, 50 μg/mL, 25 μg/mL, 12.5 μg/mL, 6.25 μg/mL, and 3.125 μg/mL. 100% DMSO was used as growth control (Well 8). As such, the compound motherplate was obtained.
# (§4) One day before the experiment, aerobic bacteria (Staphylococcus epidermidis) stored in a cryogenic tube at −80° C. were scribed on an MHA (Cation-adjusted Mueller-Hinton agar) plate. The aerobic bacteria were placed in a 35+/−2° C. incubator for 18-24 hours of aerobic cultivation.
# (§5) On the day of the experiment, the plate was taken out, clones were picked from the plate and suspended in physiological saline. Then, the turbidity of the bacterial suspension (containing 1.0-2.0×10^8 CFU/mL) was adjusted to OD600=0.2 by a turbidity meter. Then, the adjusted bacterial suspension was diluted to an appropriate concentration with the assay culture medium: about 5×10^5 CFU/mL for aerobic bacteria, and about 1×10^6 CFU/mL for anaerobic bacteria. As such, the inoculating solution was obtained.
# (§6) 2 μl of 2-fold series dilution of 100× high-concentration working solution was transferred from a compound mother plate (prepared in step 1) to a round-bottom 96-well plate, and then 198 μL of bacterial inoculating solution (prepared in step 2) was added to each well to obtain an MIC assay plate. Therefore, the final assay concentrations of the compound were 4 μg/mL, 2 μg/mL, 1 μg/mL, 0.5 μg/mL, 0.25 μg/mL, 0.125 μg/mL, 0.06 μg/mL and 0.03 μg/mL. The total volume of each well on the assay plate was 200 μL: containing 1% DMSO, about 5×10^5 CFU/mL of aerobic bacteria and about 1×10^6 CFU/mL of anaerobic bacteria.
# (§7) All assay plates for aerobic bacteria were aerobically cultured at 35+/−2° C. for 16 to 20 hours, and all assay plates for anaerobic bacteria were anaerobically cultured in an anaerobic incubator at 35+/−2° C. for 48 hours.
# [4] = test system: Staphylococcus epidermidis ATCC 35984; experiment: Minimum inhibitory concentration (MIC) assay, Staphylococcus epidermidis ATCC 35984; settings: ATCC35984, aerobic culture 35+/-2°C, 16 to 20 hours, read with naked eyes
# Experimental: as §2, §3, §4, §5, §6, §7
# [5] = test system: Staphylococcus epidermidis ATCC 12228; experiment: Minimum inhibitory concentration (MIC) assay, Staphylococcus epidermidis ATCC 12228; settings: ATCC12228, aerobic culture 35+/-2°C, 16 to 20 hours, read with naked eyes
# Experimental: as §2, §3, §4, §5, §6, §7
MIC [1],MIC [2],MIC [3],MIC [4],MIC [5],Structure (SMILES)
1 µg/mL,0.5 µg/mL,1 µg/mL,2 µg/mL,1 µg/mL,O=C(O)c1cn(C2CC2)c2c3c(ccc2c1=O)-c1c[nH]c(=O)cc1COC3 [Compound 21]
0.25 µg/mL,0.125 µg/mL,0.03 µg/mL,0.03 µg/mL,0.06 µg/mL,Nc1cc2c(cn1)-c1ccc3c(=O)c(C(=O)O)cn(C4CC4)c3c1COC2 [Trifluoroacetate of Compound 7]
0.25 µg/mL,0.125 µg/mL,0.06 µg/mL,0.06 µg/mL,0.06 µg/mL,CNc1cc2c(cn1)-c1ccc3c(=O)c(C(=O)O)cn(C4CC4)c3c1COC2 [Trifluoroacetate of Compound 2]
0.125 µg/mL,0.06 µg/mL,0.06 µg/mL,0.03 µg/mL,0.06 µg/mL,CCNc1cc2c(cn1)-c1ccc3c(=O)c(C(=O)O)cn(C4CC4)c3c1COC2 [Trifluoroacetate of Compound 14]

# The next lines start with the compound.
Structure (SMILES),MIC [1],MIC [2],MIC [3],MIC [4],MIC [5]
CN(CC(F)F)c1cc2c(cn1)-c1ccc3c(=O)c(C(=O)O)cn(C4CC4)c3c1COC2 [Trifluoroacetate of Compound 23],0.25 µg/mL,0.12 µg/mL,0.12 µg/mL,≤ 0.06 µg/mL,0.12 µg/mL
O=C(O)c1cn(C2CC2)c2c3c(ccc2c1=O)-c1cnc(NCC2CCC2)cc1COC3 [Trifluoroacetate of Compound 16],0.5 µg/mL,0.5 µg/mL,0.06 µg/mL,0.06 µg/mL,0.06 µg/mL
CNc1cc2c(cn1)-c1ccc3c(=O)c(C(=O)O)cn(C4CC4)c3c1C=CC2 [Compound 4],0.5 µg/mL,0.5 µg/mL,0.125 µg/mL,0.06 µg/mL,0.125 µg/mL
O=C(O)c1cn(C2CC2)c2c3c(ccc2c1=O)-c1cnc(NCCO)cc1COC3 [Trifluoroacetate of Compound 12],0.125 µg/mL,0.06 µg/mL,0.06 µg/mL,0.06 µg/mL,0.06 µg/mL
CC1(C)OC[C@H](CNc2cc3c(cn2)-c2ccc4c(=O)c(C(=O)O)cn(C5CC5)c4c2COC3)O1 [Compound 26],0.5 µg/mL,0.5 µg/mL,0.25 µg/mL,0.25 µg/mL,0.25 µg/mL
CN(C[C@H]1COC(C)(C)O1)c1cc2c(cn1)-c1ccc3c(=O)c(C(=O)O)cn(C4CC4)c3c1COC2 [Compound 25],0.25 µg/mL,0.25 µg/mL,0.5 µg/mL,0.25 µg/mL,0.25 µg/mL
Nc1ncc2c(n1)COCc1c-2ccc2c(=O)c(C(=O)O)cn(C3CC3)c12 [Trifluoroacetate of Compound 9],0.25 µg/mL,0.25 µg/mL,0.06 µg/mL,0.125 µg/mL,0.03 µg/mL
CNc1ccc2c(n1)COCc1c-2ccc2c(=O)c(C(=O)O)cn(C3CC3)c12 [Hydrochloride of Compound 1],0.25 µg/mL,0.25 µg/mL,0.25 µg/mL,0.5 µg/mL,0.5 µg/mL
